Laboratory results published in PMC2131780, “A Tale of Switched Functions: From Cyclooxygenase Inhibition to M-Channel Modulation in New Diphenylamine Derivatives” (PLoS ONE, 2007).
pEC50: −log10 of the molar value.

Tests used:
[1] = tested on: COX enzymes (D122 mouse Lewis lung carcinoma cells); experiment: COX inhibition, PGE2 production in D122 cells; assay type: cell-based; settings: average of two experiments in triplicate
Text: (§1) In addition, the aromatic rings of the diphenylamine moiety were substituted with different electron donating or withdrawing groups. In a first screen, two parameters were checked: (a) the non-selective inhibition of COX-1/COX-2 enzyme activities, measured by the production of PGE2 in cultured mouse colon adenocarcinoma (CT26) and mouse Lewis lung carcinoma cells (D122) cells; (b) the M-channel activity, measured by the heterologous coexpression of Kv7.2 and Kv7.3 subunits in Chinese hamster ovary (CHO) cells.
(§2) Mouse colon adenocarcinoma CT26 and mouse Lewis lung carcinoma D122 cells were grown in DMEM (D122) or RPMI (CT26) supplemented with 10% fetal calf serum, 4% glutamine, 1% penicillin-streptomycin-nystatin and 3% non essential amino acids (D122) and maintained in a humidified 37°C incubator with 5% CO2. For the COX assays, cells were grown onto 24 multiwell plates. Before the assay, cells were washed with serum-free medium; then tested compounds were added to the medium and incubated for 30 min at 37°C after which 30 µM arachidonic acid was added and incubated for additional 20 min. At the end of the incubations, 10 µM indomethacin was added to stop the reaction and medium was transferred to another 24 multiwell plate for measuring PGE2 production by radioimmunoassay (DuPont-NEN; Boston, MA) according to manufacturer protocol. Protein determination was assayed on scraped cells and was used to normalize the amount of PGE2 production. Assays with purified ovine COX-1 and human recombinant COX-2 were performed using the COX inhibitor screening assay (Cayman chemical company, Ann Arbor, MI), according to manufacturer protocol.

[2] = tested on: COX enzymes (CT26 mouse colon adenocarcinoma cells); experiment: COX inhibition, PGE2 production in CT26 cells; assay type: cell-based; settings: for IC50: average of two experiments in triplicate, read-out: COX inhibition (IC50, µM) CT26
Text: as §1, §2

[3] = biological target: T1, Kv7.2/3 K+ channels (M-channels) (Homo sapiens, UniProt O43525+O43526); experiment: Whole-cell patch-clamp of recombinant Kv7.2/3 channels in CHO cells; assay type: cell-based; settings: for ΔV50 (mV), left-shift in half-activation potential: Kv7.2/3 in CHO cells; for M-channels (Kv7.2/Kv7.3) effect (opener / blocker / inactive): Kv7.2 and Kv7.3 coexpressed in CHO cells; for pEC50: concentration-dependent left-shift ΔV50, sigmoidal fit, read-out: M-channel opener potency EC50
T1 construct: expressed in transfected cells; host or cells: CHO cells
T1 sequence (O43526 whole entry): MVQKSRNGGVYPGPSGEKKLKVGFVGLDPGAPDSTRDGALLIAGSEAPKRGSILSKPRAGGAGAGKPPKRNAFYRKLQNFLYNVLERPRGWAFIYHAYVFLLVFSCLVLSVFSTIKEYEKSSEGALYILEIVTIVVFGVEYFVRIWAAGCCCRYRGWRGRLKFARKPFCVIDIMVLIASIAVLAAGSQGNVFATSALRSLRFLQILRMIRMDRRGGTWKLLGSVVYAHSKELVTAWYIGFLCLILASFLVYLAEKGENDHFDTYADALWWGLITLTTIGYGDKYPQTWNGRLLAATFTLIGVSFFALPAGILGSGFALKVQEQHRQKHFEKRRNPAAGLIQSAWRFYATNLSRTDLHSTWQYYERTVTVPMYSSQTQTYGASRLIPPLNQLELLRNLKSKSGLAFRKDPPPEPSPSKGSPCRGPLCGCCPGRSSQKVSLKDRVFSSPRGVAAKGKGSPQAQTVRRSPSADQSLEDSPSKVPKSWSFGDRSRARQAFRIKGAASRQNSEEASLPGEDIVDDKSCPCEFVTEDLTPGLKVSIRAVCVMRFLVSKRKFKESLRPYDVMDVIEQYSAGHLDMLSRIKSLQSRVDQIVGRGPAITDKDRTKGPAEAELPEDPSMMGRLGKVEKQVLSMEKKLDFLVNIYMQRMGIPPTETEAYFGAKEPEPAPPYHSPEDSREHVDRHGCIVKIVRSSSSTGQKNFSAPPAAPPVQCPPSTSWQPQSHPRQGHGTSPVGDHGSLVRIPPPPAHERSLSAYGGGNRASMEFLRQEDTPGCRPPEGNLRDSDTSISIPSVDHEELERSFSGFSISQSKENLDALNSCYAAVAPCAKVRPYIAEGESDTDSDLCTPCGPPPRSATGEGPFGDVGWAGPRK
T1 sequence (O43525 whole entry): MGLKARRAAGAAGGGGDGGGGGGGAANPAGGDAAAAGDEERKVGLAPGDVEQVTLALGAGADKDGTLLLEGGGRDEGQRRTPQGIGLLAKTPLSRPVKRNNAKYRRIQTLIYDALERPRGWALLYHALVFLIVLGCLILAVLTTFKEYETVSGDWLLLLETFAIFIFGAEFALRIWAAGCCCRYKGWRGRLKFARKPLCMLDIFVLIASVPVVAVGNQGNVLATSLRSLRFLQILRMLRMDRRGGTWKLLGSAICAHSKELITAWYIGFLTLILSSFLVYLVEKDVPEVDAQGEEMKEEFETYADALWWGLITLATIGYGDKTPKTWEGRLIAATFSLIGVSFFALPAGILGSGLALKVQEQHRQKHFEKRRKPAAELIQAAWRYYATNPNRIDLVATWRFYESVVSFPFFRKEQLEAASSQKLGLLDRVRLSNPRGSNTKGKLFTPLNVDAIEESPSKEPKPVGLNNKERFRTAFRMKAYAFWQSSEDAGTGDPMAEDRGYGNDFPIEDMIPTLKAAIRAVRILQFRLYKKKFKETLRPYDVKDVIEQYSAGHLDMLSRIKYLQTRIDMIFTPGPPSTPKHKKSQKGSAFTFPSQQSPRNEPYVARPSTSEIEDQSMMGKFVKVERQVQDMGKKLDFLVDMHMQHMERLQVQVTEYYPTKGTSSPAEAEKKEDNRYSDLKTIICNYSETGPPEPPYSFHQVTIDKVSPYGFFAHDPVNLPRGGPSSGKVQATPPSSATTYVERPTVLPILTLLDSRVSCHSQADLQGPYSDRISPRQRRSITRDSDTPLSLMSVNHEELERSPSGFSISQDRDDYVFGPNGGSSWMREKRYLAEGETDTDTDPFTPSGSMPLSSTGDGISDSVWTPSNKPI
Experimental: Chinese hamster ovary (CHO) cells were grown in Dulbecco's modified Eagle's medium (DMEM) supplemented with 2 mM glutamine, 10% fetal calf serum and antibiotics. Briefly, 40,000 cells seeded on poly-D-lysine-coated glass coverslips (13 mm diameter) in a 24-multiwell plate were transfected with pIRES-CD8 (0.5 µg) as a marker for transfection, and with Kv7.2 (0.5 µg) and Kv7.3 (0.5 µg). For electrophysiology, transfected cells were visualized approximately 40 hours following transfection, using anti-CD8 antibody-coated beads. Transfection was performed using Fugene 6 (Roche, Indianapolis IN, USA) according to the manufacturer's protocol.
Voltage-clamp recordings in CHO cells were performed, using the whole-cell configuration of the patch-clamp technique. Signals were amplified using an Axopatch 200B patch-clamp amplifier (Molecular Devices, Sunnyvale, CA), sampled at 2 kHz and filtered at 800 Hz via a 4-pole Bessel low pass filter. […] The patch pipettes were pulled from borosilicate glass (Warner Instrument Corp, USA) with a resistance of 2–5 MΩ. For K^+ current recordings in CHO cells, the intracellular pipette solution contained (in mM): 130 KCl, 1 MgCl2, 5 K2ATP, 5 EGTA, 10 HEPES, adjusted with KOH to pH 7.4 (290 mOsm). The extracellular solution contained (in mM): 140 NaCl, 4 KCl, 1.8 CaCl2, 1.2 MgCl2, 11 glucose, 5.5 HEPES, adjusted with NaOH to pH 7.4 (310 mOsm). Series resistances (3–13 MΩ) were compensated (75–90%) and periodically monitored.
Data analysis was performed using the Clampfit program (pClamp 9.2, Molecular Devices), Microsoft Excel (Microsoft) and Prism 4.0 (GraphPad). Chord conductance (G) was calculated by using the following equation: [drawing 1] where I corresponds to the current amplitude measured at the end of the pulse and Vrev, the calculated reversal potential. G was estimated at various test voltages V and then, normalized to a maximal conductance value, Gmax. Activation curves were fitted by one Boltzmann distribution: [drawing 2] where V50 is the voltage at which the current is half-activated and s is the slope factor. All data were expressed as mean±SEM. Statistically significant differences were assessed by Student's t-test. Analysis of sEPSCs and sIPSCs was done using the Clampfit program (pClamp 9.2, Molecular Devices) and included evaluation of the individual events as well as the average event amplitude and the integral of the event (total charge transfer).

[4] = tested on: MES-induced tonic hind limb extension; experiment: Maximal electroshock seizure (MES) model; assay type: in vivo, mouse; settings: mice, intraperitoneal, 30 min before electroshock; not shown
Experimental: This test is generally thought to be a model of generalized tonic-clonic seizure in human.
The anti-convulsant effect was measured by the maximal electroshock seizure model (MES) in ICR mice as previously described. The procedures followed for experimentation and maintenance of the animals were approved by the animal research ethics committee of Tel Aviv University and in accordance with the Guide for the Care and Use of Laboratory Animals (1996, National Academy of Sciences, Washington DC). Briefly, maximal electroshock was induced in adult mice by means of two transcorneal electrodes delivering an alternative current of 50 mA at 60 Hz for 0.2 sec using rodent shocker (Hugo Sachs Electronik, type 221). […] The drugs dissolved in 0.9% saline were administered intraperitoneally 30 min before the electroshock was performed. Animals failing to show tonic hind limb extension were scored as protected and were expressed in percentage.

## O=C(Cc1cc([N+](=O)[O-])ccc1Nc1c(Cl)cccc1Cl)NCCO [Compound 7]
[1]
  IC50: > 50 µM
[2]
  effect on COX activity (Figure 1): completely unaffected
  IC50: > 50 µM
[3]
  ΔV50 (mV), left-shift in half-activation potential: −12.2 mV
  M-channels (Kv7.2/Kv7.3) effect (opener / blocker / inactive): opener
  pEC50: 4.77

## Cc1cccc(Nc2ccccc2C(=O)O)c1C [mefenamate, reference compound]
[3]
  M-channels (Kv7.2/Kv7.3) effect (opener / blocker / inactive): openers

## COc1ccc2cc([C@H](C)C(=O)O)ccc2c1 [naproxen, reference compound]
[3]
  M-channels (Kv7.2/Kv7.3) effect (opener / blocker / inactive): do not activate

## O=C1NC(=O)C(c2ccccc2)(c2ccccc2)N1 [phenytoin]
[4]
  dose that fully prevented hind limb extension: 20 mg/kg

## CCCC(CCC)C(=O)O [sodium valproate]
[4]
  dose that fully prevented hind limb extension: 500 mg/kg

## O=C(O)c1ccccc1Nc1cccc(C(F)(F)F)c1 [flufenamate, reference compound]
[3]
  M-channels (Kv7.2/Kv7.3) effect (opener / blocker / inactive): openers

## CC(C(=O)O)c1cccc(Oc2ccccc2)c1 (stereo not shown) [fenoprofen, reference compound]
[3]
  M-channels (Kv7.2/Kv7.3) effect (opener / blocker / inactive): do not activate

## O=C(O)Cc1ccccc1Nc1c(Cl)cccc1Cl [Diclofenac, reference compound]
[1]
  IC50: 0.1 µM
[2]
  IC50: 0.003 µM
[3]
  M-channels (Kv7.2/Kv7.3) effect (opener / blocker / inactive): opener
  pEC50: 5.59
[3]; listed as diclofenac
  M-channels (Kv7.2/Kv7.3) effect (opener / blocker / inactive): openers

## CC(C(=O)O)c1ccc(-c2ccccc2)c(F)c1 (stereo not shown) [flurbiprofen, reference compound]
[3]
  M-channels (Kv7.2/Kv7.3) effect (opener / blocker / inactive): do not activate

## Cc1ccc(Cl)c(Nc2ccccc2C(=O)O)c1Cl [Meclofenamic acid, reference compound]
[3]
  ΔV50 (mV), left-shift in half-activation potential: −22.7 mV
  M-channels (Kv7.2/Kv7.3) effect (opener / blocker / inactive): opener
  pEC50: 4.60
[3]; listed as meclofenamate
  M-channels (Kv7.2/Kv7.3) effect (opener / blocker / inactive): openers
